The experiment relates to HUVEC/MSC spheroids viability. Nature of the experiment: Human HUVEC/MSC cell line growth inhibition [KRAS2].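 On viability, T/C: percent of DMSO vehicle control luminescence so 100% = untreated viability.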 Conditions: for viability, T/C: stronger effect = lower value; for pIC50: curve of first compound. In short, it runs like this: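 Spheroids of human HUVEC plus MSCs, without tumor cells, were treated with single agents and combinations. Each drug was tested in half-log steps down from near its clinical Cmax, or from 10 microM when Cmax was unknown. HUVEC and hMSC were used at passage </=5.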

For orientation: viability, T/C means the ratio of treated to control. The IC50 is the concentration at which inhibition is half-maximal. The term pIC50 denotes −log10 of the IC50, conventionally taken in molar units.

Molecules are shown by their SMILES. pIC50: −log10 of the molar value. Bounds are passed on as bounds.

With `COC(=O)c1ccc2c(C(=Nc3ccc(N(C)C(=O)CN4CCN(C)CC4)cc3)c3ccccc3)c(O)[nH]c2c1`, the viability, T/C reads like this: (compound 1 µM) 58.1% [middle of 5 runs]; (compound 3.16 µM) 39.6% [middle of 5 runs]; (compound 10 µM) 0.37% [middle of 5 runs]. Under “curve of compound”, the IC50 was 1.96 µM [middle of 5 runs].

For the compound `CC1OCC2(CCN(c3cnc(Sc4ccnc(N)c4Cl)c(N)n3)CC2)C1N` (stereo unspecified) + C=CC(=O)N1CCN(c2nc(OCC3CCCN3C)nc3c2CCN(c2cccc4cccc(C)c24)C3)CC1CC#N, the pIC50 is, setting by setting: (second compound 0.00949 µM) less than 5.00; (second compound 0.03 µM) less than 5.00; (second compound 0.0949 µM) less than 5.00; (second compound 0.3 µM) less than 5.00; (second compound 0.949 µM) 5.27; (second compound 3 µM) 6.41. The viability, T/C runs as follows: (second compound 0.00949 µM, first compound 0.0316 µM) 112%; (second compound 0.00949 µM, first compound 0.1 µM) 102%; (second compound 0.00949 µM, first compound 0.316 µM) 99.9%; (second compound 0.00949 µM, first compound 1 µM) 82.3%; (second compound 0.00949 µM, first compound 3.16 µM) 71.1%; (second compound 0.00949 µM, first compound 10 µM) 73.6%. The viability, T/C was 109% (second compound 0.03 µM, first compound 0.0316 µM); 116% (second compound 0.03 µM, first compound 0.1 µM); 89.8% (second compound 0.03 µM, first compound 0.316 µM); 87.3% (second compound 0.03 µM, first compound 1 µM); 66% (second compound 0.03 µM, first compound 3.16 µM); 67.9% (second compound 0.03 µM, first compound 10 µM). The viability, T/C (second compound 0.0949 µM, first compound 0.0316 µM) is 98.5%; the viability, T/C (second compound 0.0949 µM, first compound 0.1 µM) was 96.4%; the viability, T/C (second compound 0.0949 µM, first compound 0.316 µM) was 90%; the viability, T/C (second compound 0.0949 µM, first compound 1 µM) was 79.5%; the viability, T/C (second compound 0.0949 µM, first compound 3.16 µM) is 74.1%; the viability, T/C (second compound 0.0949 µM, first compound 10 µM) is 66.5%. The viability, T/C by setting is: (second compound 0.3 µM, first compound 0.0316 µM) 86.7%; (second compound 0.3 µM, first compound 0.1 µM) 90.7%; (second compound 0.3 µM, first compound 0.316 µM) 89.4%; (second compound 0.3 µM, first compound 1 µM) 69.1%; (second compound 0.3 µM, first compound 3.16 µM) 72.9%; (second compound 0.3 µM, first compound 10 µM) 56.1%. For the same compound, the viability, T/C (second compound 0.949 µM, first compound 0.0316 µM) is 63%; the viability, T/C (second compound 0.949 µM, first compound 0.1 µM) was 79.5%; the viability, T/C (second compound 0.949 µM, first compound 0.316 µM) is 83.2%; the viability, T/C (second compound 0.949 µM, first compound 1 µM) was 71.8%; the viability, T/C (second compound 0.949 µM, first compound 3.16 µM) is 60.4%; the viability, T/C (second compound 0.949 µM, first compound 10 µM) is 37.9%. In addition, the viability, T/C was 55.4% (second compound 3 µM, first compound 0.0316 µM); 67.6% (second compound 3 µM, first compound 0.1 µM); 48% (second compound 3 µM, first compound 0.316 µM); 35.7% (second compound 3 µM, first compound 1 µM); 4.99% (second compound 3 µM, first compound 3.16 µM); 0.43% (second compound 3 µM, first compound 10 µM).

The values are drawn from PubChem BioAssay AID2060912 (Molecular Pharmacology Branch, DTP, NCI, 2025).
